According to ChEMBL document CHEMBL3045050, “A ligand-based approach for enhancing the pharmacokinetic profile of highly charged antibacterial agents” (Med Chem Res, 2012):
Converted amounts (≈) assume the structure as drawn. The source made the active and inactive calls. The rule behind the calls is not given here.

Key:
[1] = test system: Streptococcus pneumoniae; assay: Ratio of MIC for Streptococcus pneumoniae to IC50 for Streptococcus pneumoniae glutamate racemase
[2] = test system: Streptococcus pneumoniae; assay: Antibacterial activity against Streptococcus pneumoniae; assay type: functional
[3] = biological target: T1, Glutamate racemase (Streptococcus pneumoniae serotype 2 (strain D39 / NCTC 7466), UniProt Q04IS7); assay: Inhibition of Streptococcus pneumoniae glutamate racemase
T1 sequence (Q04IS7 whole entry): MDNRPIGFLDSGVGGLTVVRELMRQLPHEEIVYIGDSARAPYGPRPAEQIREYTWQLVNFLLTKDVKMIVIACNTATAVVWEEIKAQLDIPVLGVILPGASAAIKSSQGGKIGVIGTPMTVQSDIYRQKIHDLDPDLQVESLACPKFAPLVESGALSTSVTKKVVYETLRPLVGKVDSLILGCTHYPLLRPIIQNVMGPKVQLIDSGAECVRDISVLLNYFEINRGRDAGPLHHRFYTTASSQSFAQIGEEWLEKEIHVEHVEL

[4] = test system: Enterococcus faecalis; assay: Antibacterial activity against Enterococcus faecalis incubated overnight by disk diffusion method; assay type: functional, organism-based
[5] = test system: Escherichia coli; assay: Antibacterial activity against Escherichia coli incubated overnight by disk diffusion method; assay type: functional, organism-based
[6] = test system: Enterococcus faecium; assay: Antibacterial activity against Enterococcus faecium incubated overnight by disk diffusion method; assay type: functional, organism-based
[7] = test system: Staphylococcus aureus; assay: Antibacterial activity against Staphylococcus aureus incubated overnight by disk diffusion method; assay type: functional, organism-based
[8] = test system: Streptococcus pneumoniae; assay: Antibacterial activity against Streptococcus pneumoniae R6 at 0.5 to 3 mg/ml incubated overnight by disk diffusion method; assay type: functional, organism-based
[9] = test system: Streptococcus pneumoniae; assay: Antibacterial activity against Streptococcus pneumoniae R6 incubated overnight by disk diffusion method; assay type: functional

SMILES	Ratio [1]	MIC [2] [µg/mL]	IC50 [3] [nM]	Activity [4]	Activity [5]	Activity [6]	Activity [7]	Activity [8]	MIC [9] [µg/mL]
N[C@H](C[C@H](C(=O)O)c1ccc(NC(=O)Nc2ccccc2)cc1)C(=O)O	100	16 (≈ 44.8 µM)	1370	–	–	–	–	–	–
O=C(CC(NCCc1c[nH]c2ccccc12)C(=O)O)c1ccc(Cl)cc1 (stereo not given)	–	–	–	inactive	inactive	inactive	inactive	inactive	–
N[C@H](C[C@H](C(=O)O)c1cccc(-c2ccco2)c1)C(=O)O	–	0.24 (≈ 0.83 µM)	1730	–	–	–	–	–	–
O=C(CC(NCCc1c[nH]c2ccccc12)C(=O)O)c1ccc(Br)cc1 (stereo not given)	–	–	–	inactive	inactive	inactive	inactive	–	1000 (≈ 2410 µM)
O=C(CC(NCCc1c[nH]c2ccccc12)C(=O)O)c1ccc(F)cc1 (stereo not given)	–	–	–	inactive	inactive	inactive	inactive	–	1000 (≈ 2820 µM)
Cc1ccc(C(=O)CC(NCCc2c[nH]c3ccccc23)C(=O)O)cc1 (stereo not given)	–	–	–	inactive	inactive	inactive	inactive	–	1000 (≈ 2850 µM)
